Reference: patent US20080039481A1, “Seed Dressing for Soya Bean” (BAYER CROPSCIENCE AG, priority 2004, published 2008)

What was measured:
[1] = test system: Phakopsora Pachyrhizi; assay: Seed dressing field trial, action of fluquinconazole against soya bean rust; format: in vivo; conditions: natural infection (control 75%)
Procedure: Action of Fluquinconazole against Phakopsora Pachyrhizi Seed Dressing: Fluquinconazole 25 WPC (Wettable Powder) For dressing, the seed was shaken for 1 minute with the seed dressing in a closed plastic bag. The seed was sown in a field (4 plots, plot size in each case 10 m^2, 40 seeds per m^2) and, one day after sowing, artificially irrigated. The natural degree of infection in the control was, on average, 75%. The efficacy is expressed in percent. 0% means an efficacy which corresponds with that of the control, whereas an efficacy of 100% means that no infection is observed.

[2] = test system: Phakopsora Pachyrhizi; assay: Seed dressing field trial, action of prothioconazole against soya bean rust; format: in vivo; conditions: duration 28 days, natural infection (control 75%)
Procedure: Action of Prothioconazole against Phakopsora Pachyrhizi
Seed Dressing: Prothioconazole
For dressing, the seed was shaken for 1 minute with the seed dressing in a closed plastic bag.
The seed was sown in a field (4 plots, plot size in each case 10 m^2, 40 seeds per m^2) and, one day after sowing, artificially irrigated.
The natural degree of infection in the control was, on average, 75%.
The efficacy is expressed in percent. 0% means an efficacy which corresponds with that of the control, whereas an efficacy of 100% means that no infection is observed.

Measured: Efficacy

O=c1c2cc(F)ccc2nc(-n2cncn2)n1-c1ccc(Cl)cc1Cl [fluquinconazole]
100%: [1]; 5 g of fluquinconazole/100 kg of seed, duration 28 days | [1]; 50 g of fluquinconazole/100 kg of seed, duration 22 days | [1]; 50 g of fluquinconazole/100 kg of seed, duration 33 days | [1]; 50 g of fluquinconazole/100 kg of seed, duration 37 days

OC(Cc1ccccc1Cl)(Cn1nc[nH]c1=S)C1(Cl)CC1 (stereo not drawn) [prothioconazole]
100%: [2]; 5 g of prothioconazole/100 kg of seed | [2]; 10 g of prothioconazole/100 kg of seed
